IC50 data for 34 compounds are collected here from US20260098030A1, “NEGATIVE ALLOSTERIC MODULATORS OF METABOTROPIC GLUTAMATE RECEPTOR 2” (Vanderbilt University, priority 2022, published 2026).

The target in the test is T1, rat mGlu2 (Rattus norvegicus, UniProt P31421).
T1 construct: expressed in transfected cells; host or cells: HEK-293 cells stably co-expressing GIRK channels
T1 sequence (P31421 19-872): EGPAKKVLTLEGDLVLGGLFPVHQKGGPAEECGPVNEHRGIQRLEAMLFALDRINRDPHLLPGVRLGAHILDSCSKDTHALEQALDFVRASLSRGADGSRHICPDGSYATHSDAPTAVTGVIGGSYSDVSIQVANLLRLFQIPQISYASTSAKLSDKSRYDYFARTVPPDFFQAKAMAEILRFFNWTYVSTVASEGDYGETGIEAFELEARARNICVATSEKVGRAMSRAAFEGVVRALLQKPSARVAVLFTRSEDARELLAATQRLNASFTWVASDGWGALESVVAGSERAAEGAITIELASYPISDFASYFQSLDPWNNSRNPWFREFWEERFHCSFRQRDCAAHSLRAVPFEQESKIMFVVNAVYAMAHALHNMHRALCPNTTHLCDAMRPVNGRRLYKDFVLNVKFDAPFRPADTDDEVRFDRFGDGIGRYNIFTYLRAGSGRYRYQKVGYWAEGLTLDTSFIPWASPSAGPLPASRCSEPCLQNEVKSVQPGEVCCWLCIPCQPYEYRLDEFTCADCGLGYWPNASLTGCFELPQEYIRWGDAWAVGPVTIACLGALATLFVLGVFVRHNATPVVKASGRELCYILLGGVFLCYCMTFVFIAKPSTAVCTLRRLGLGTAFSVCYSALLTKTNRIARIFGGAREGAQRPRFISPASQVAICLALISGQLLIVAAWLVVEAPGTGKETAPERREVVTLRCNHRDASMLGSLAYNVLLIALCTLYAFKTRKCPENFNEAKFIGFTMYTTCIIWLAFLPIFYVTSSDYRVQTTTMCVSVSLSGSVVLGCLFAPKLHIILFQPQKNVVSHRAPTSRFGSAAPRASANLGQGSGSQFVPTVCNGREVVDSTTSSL
Briefly: mGlu GIRK cell-based thallium flux assay, rat mGlu2. To be noted: HEK-293 cells co-expressing rat mGlu2 and GIRK, EC80 glutamate. The procedure:
Human embryonic kidney (HEK-293) cell lines stably co-expressing human or rat mGlu2 and G protein-coupled inwardly rectifying potassium (GIRK) channels, or human mGlu3 and GIRK, were used for in vitro evaluation of compound activity in thallium flux assay using a fluorescent thallium indicator dye.
The day before the assay, GIRK cells co-expressing human mGlu3, human or rat mGlu2, as described above, were plated in black-walled, clear-bottomed, amine-coated 384-well plates at a density of 15,000 cells/20 μL/well in the assay medium (glutamine-depleted basal DMEM supplemented with 10% dialyzed FBS, 20 mM HEPES, 1 mM sodium pyruvate). Cells were incubated at 37° C. in the presence of 5% CO2. The next day, assay buffer (Hanks balanced salt solution, 20 mM HEPES, 4.16 mM sodium bicarbonate, pH 7.2) was prepared to dilute compounds and Thallos AM fluorescent dye solution. The 2× Thallos dye solution (final concentration 0.34 μM to the cells) was prepared by mixing the dye stock (2.97 mM in DMSO) to 1:1 with 10% pluronic acid before adding to the assay buffer. Cells were washed with assay buffer using a microplate washer to remove the medium, resulting in 20 μL of buffer remaining in each well. Immediately, 20 μL of 2× Thallos dye solution was added to cells, and incubated for one hour at 25° C. During the cell dye loading incubation period, a 10-point concentration serial dilution of compound was created from a 10 mM DMSO compound stock by performing a 1:3 serial dilution in DMSO using the Bravo liquid handler. The 2× compound plate was generated by transferring 0.24 μL of the diluted compound in each well to a daughter plate using an Echo acoustic liquid handler. This is further diluted in 40 μL assay buffer, resulting in a range from 30 μM to 1.5 nM final concentration in the assay. The agonist plate (5×) was prepared to include EC80 glutamate concentration (a concentration to elicit 80% of a maximally effective glutamate concentration) in thallium buffer (125 mM […], 1 mM magnesium sulfate, 1.8 mM calcium sulfate, 5 mM glucose, 10 mM HEPES, pH 7.2, 12.5 mM thallium sulfate).
After dye-loading, cell plates were washed with assay buffer to remove excess extracellular dye using a microplate washer, resulting in 20 μL of buffer remaining in each well. After a ten-minute equilibration period, cell, compound and agonist plates were loaded into a Hamamatsu μCell kinetic imaging plate reader equipped with liquid handler to monitor fluorescence changes at 480 nm excitation and 540 nm emission settings. Briefly, after collection of baseline fluorescence, 20 μL of compound was added and incubated for two minutes and twenty seconds. This is immediately followed by adding 10 μL of glutamate-thallium buffer to the wells containing compound. The fluorescent signal was monitored an additional 2.5 minutes after the glutamate addition. Multiple reference wells containing no compound received either no glutamate (for a baseline reference), EC80 glutamate, or ECmax glutamate (for normalization to maximum response). Fluorescence was measured throughout the experiment at a frequency of 1 measurement per every 2 seconds before the glutamate addition and a frequency of 1 measurement per every 1 second after the glutamate addition. Each compound concentration series occurred one time in each plate, and replicates from two or three plates were used in each experimental run. Thallium solutions were handled and disposed of according to guidelines from the Vanderbilt University Chemical Safety department.
Data were normalized using a static ratio function (F/F0) by dividing every fluorescent measurement by the initial fluorescent value for the corresponding well. The increase in signal resulting from the glutamate/thallium addition of the second add was measured by determining the slope from 3 seconds to 13 seconds after the addition. […]
By IC50 is commonly meant the concentration that inhibits the measured activity by half. A high value points to a need for much substance. `Cn1cc2ccc(-c3cc4c(cc3-c3ccc(F)cc3F)C(=O)NC4)cc2n1` [Compound 25, 6-(2,4-difluorophenyl)-5-(2-methyl-2H-indazol-6-yl)isoindolin-1-one]: the concentration for half-maximal inhibition (IC50) was 2.35 µM.

As for `O=C1NCc2cc(-c3ccc4scnc4c3)c(-c3ccc(F)cc3)cc21` [Compound 13, 5-(benzo[d]thiazol-5-yl)-6-(4-fluorophenyl)isoindolin-1-one], the IC50 was determined as 0.161 µM.

The compound `COC1CC=C(c2cc3c(cc2-c2ccc(F)cc2)C(=O)NC3)CC1` (stereo not shown) [Compound 54, 6-(4-fluorophenyl)-5-(4-methoxycyclohex-1-en-1-yl)isoindolin-1-one] displayed a half-maximal inhibitory concentration (IC50) greater than 10 µM.

Turning to `COc1ccc(-c2cc3c(cc2-c2ccc(F)cc2F)C(=O)NC3)cc1C#N` [Compound 92, 5-(6-(2,4-difluorophenyl)-1-oxoisoindolin-5-yl)-2-methoxybenzonitrile], half-maximal inhibition (IC50) was put at 0.618 µM.

`O=C1NCc2cc(C3CCCNC3)c(-c3ccc(F)cc3)cc21` (stereo not shown) [Compound 78, 6-(4-fluorophenyl)-5-(piperidin-3-yl)isoindolin-1-one]: the IC50 was greater than 10 µM.

In turn, `O=C1NCc2cc(-c3ccc(C4CC4)nc3)c(-c3ccc(F)cc3F)cc21` [Compound 70, 5-(6-cyclopropylpyridin-3-yl)-6-(2,4-difluorophenyl)isoindolin-1-one] showed an IC50 of 1.98 µM.

In turn, `O=C1NCc2cc(-c3cccnc3N3CCCC3)c(-c3ccc(F)cc3F)cc21` [Compound 102, 6-(2,4-difluorophenyl)-5-(2-(pyrrolidin-1-yl)pyridin-3-yl)isoindolin-1-one] registered an IC50 greater than 10 µM.

`O=C1NCc2cc(C3=CCCNC3)c(-c3ccc(F)cc3)cc21` [Compound 61, 6-(4-fluorophenyl)-5-(1,2,5,6-tetrahydropyridin-3-yl)isoindolin-1-one]: the half-maximal inhibitory concentration (IC50) is greater than 10 µM.

Take `O=C1NCc2cc(-c3cc(F)c4ncccc4c3F)c(-c3ccc(F)cc3)cc21` [Compound 21, 5-(5,8-difluoroquinolin-6-yl)-6-(4-fluorophenyl)isoindolin-1-one]: the half-maximal inhibitory concentration (IC50) was 3.81 µM.

In the case of `CN(C)c1ncccc1-c1cc2c(cc1-c1ccc(F)cc1)C(=O)NC2` [Compound 39, 5-(2-(dimethylamino)pyridin-3-yl)-6-(4-fluorophenyl)isoindolin-1-one], the IC50 was greater than 10 µM.

In turn, `N#Cc1ccc(-n2cc(-c3cc4c(cc3-c3ccc(F)cc3F)C(=O)NC4)cn2)cc1` [Compound 111, 4-(4-(6-(2,4-difluorophenyl)-1-oxoisoindolin-5-yl)-1H-pyrazol-1-yl)benzonitrile] came in with an IC50 greater than 10 µM.

In turn, `Cc1cc(-c2cc3c(cc2-c2ccc(F)cc2F)C(=O)NC3)c(C)n1C` [Compound 97, 6-(2,4-difluorophenyl)-5-(1,2,5-trimethyl-1H-pyrrol-3-yl)isoindolin-1-one] gave an IC50 of 0.938 µM.

For `CC1CC(c2cc3c(cc2-c2ccc(F)cc2)C(=O)NC3)CCN1` (stereo not shown) [Compound 85, 6-(4-fluorophenyl)-5-(2-methylpiperidin-4-yl)isoindolin-1-one], the IC50 is greater than 10 µM.

With `O=C1NCc2cc(-c3cccnc3)c(-c3ccc(F)cc3)cc21` [Compound 44, 6-(4-fluorophenyl)-5-(pyridin-3-yl)isoindolin-1-one], the IC50 is greater than 10 µM.

As to `O=C1NCc2cc(-c3ccc(C4CC4)nc3)c(-c3ccc(F)cc3)cc21` [Compound 26, 5-(6-cyclopropylpyridin-3-yl)-6-(4-fluorophenyl)isoindolin-1-one], the 50% inhibitory concentration (IC50) is greater than 10 µM.

Consider `CN1CCC(c2cc3c(cc2-c2ccc(F)cc2)C(=O)NC3)CC1` [Compound 66, 6-(4-fluorophenyl)-5-(1-methylpiperidin-4-yl)isoindolin-1-one], for which the 50% inhibitory concentration (IC50) was greater than 10 µM.

Take `O=C1NCc2cc(-c3ccc4[nH]ccc4c3)c(-c3ccc(F)cc3F)cc21` [Compound 89, 6-(2,4-difluorophenyl)-5-(1H-indol-5-yl)isoindolin-1-one]: the concentration for half-maximal inhibition (IC50) stood at 0.925 µM.

Compound `CC1(C)CC(c2cc3c(cc2-c2ccc(F)cc2)C(=O)NC3)CC(C)(C)N1` [Compound 75, 6-(4-fluorophenyl)-5-(2,2,6,6-tetramethylpiperidin-4-yl)isoindolin-1-one] showed a half-maximal inhibitory concentration (IC50) greater than 10 µM.

`Cn1ccc(-c2cc3c(cc2-c2ccc(F)cc2)C(=O)NC3)n1` [Compound 35, 6-(4-fluorophenyl)-5-(1-methyl-1H-pyrazol-3-yl)isoindolin-1-one] yielded an IC50 of 1.03 µM.

In turn, `O=C1NCc2cc(C3=CCNCC3)c(-c3ccc(F)cc3)cc21` [Compound 60, 6-(4-fluorophenyl)-5-(1,2,3,6-tetrahydropyridin-4-yl)isoindolin-1-one] registered a concentration for half-maximal inhibition (IC50) greater than 10 µM.

Consider `N#Cc1cc(F)cc(-c2cc3c(cc2-c2ccc(F)cc2F)C(=O)NC3)c1` [Compound 106, 3-(6-(2,4-difluorophenyl)-1-oxoisoindolin-5-yl)-5-fluorobenzonitrile], for which the IC50 came out at 1.42 µM.

Consider `CN1CCCC(c2cc3c(cc2-c2ccc(F)cc2)C(=O)NC3)C1` (stereo not shown) [Compound 65, 6-(4-fluorophenyl)-5-(1-methylpiperidin-3-yl)isoindolin-1-one], for which the IC50 was greater than 10 µM.

Compound `O=C1NCc2cc(-c3ccc4cccnc4c3)c(-c3ccc(F)cc3)cc21` [Compound 18, 6-(4-fluorophenyl)-5-(quinolin-7-yl)isoindolin-1-one] yielded a half-maximal inhibitory concentration (IC50) of 4.33 µM.

The compound `CC1(C)CNCC=C1c1cc2c(cc1-c1ccc(F)cc1)C(=O)NC2` [Compound 76, 5-(3,3-dimethyl-1,2,3,6-tetrahydropyridin-4-yl)-6-(4-fluorophenyl)isoindolin-1-one] showed an IC50 greater than 10 µM.

With `Cc1ncccc1-c1cc2c(cc1-c1ccc(F)cc1F)C(=O)NC2` [Compound 73, 6-(2,4-difluorophenyl)-5-(2-methylpyridin-3-yl)isoindolin-1-one], the IC50 worked out at 4.41 µM.

In turn, `O=C1NCc2cc(-c3ccc4ccncc4c3)c(-c3ccc(F)cc3)cc21` [Compound 15, 6-(4-fluorophenyl)-5-(isoquinolin-7-yl)isoindolin-1-one] displayed a half-inhibitory concentration (IC50) of 4.06 µM.

Compound `Cc1n[nH]c2ccc(-c3cc4c(cc3-c3ccc(F)cc3)C(=O)NC4)cc12` [Compound 47, 6-(4-fluorophenyl)-5-(3-methyl-1H-indazol-5-yl)isoindolin-1-one] displayed an IC50 greater than 10 µM.

Consider `Cc1cc(F)ncc1-c1cc2c(cc1-c1ccc(F)cc1)C(=O)NC2` [Compound 37, 5-(6-fluoro-4-methylpyridin-3-yl)-6-(4-fluorophenyl)isoindolin-1-one], for which the IC50 was greater than 10 µM.

Compound `CC1CNCCC1c1cc2c(cc1-c1ccc(F)cc1)C(=O)NC2` (stereo not shown) [Compound 77, 6-(4-fluorophenyl)-5-(3-methylpiperidin-4-yl)isoindolin-1-one] had an IC50 greater than 10 µM.

In the case of `O=C1NCc2cc(C3CCNC3)c(-c3ccc(F)cc3)cc21` (stereo not shown) [Compound 83, 6-(4-fluorophenyl)-5-(pyrrolidin-3-yl)isoindolin-1-one], the 50% inhibitory concentration (IC50) is greater than 10 µM.

Consider `O=C1NCc2cc(C3=CCOCC3)c(-c3ccc(F)cc3)cc21` [Compound 55, 5-(3,6-dihydro-2H-pyran-4-yl)-6-(4-fluorophenyl)isoindolin-1-one], for which the IC50 is greater than 10 µM.

On to `O=C1NCc2cc(-c3cccnc3C3CC3)c(-c3ccc(F)cc3)cc21` [Compound 43, 5-(2-cyclopropylpyridin-3-yl)-6-(4-fluorophenyl)isoindolin-1-one], for which the IC50 is greater than 10 µM.

`O=C1NCc2cc(-c3ccc(C(F)(F)F)nc3)c(-c3ccc(F)cc3F)cc21` [Compound 79, 6-(2,4-difluorophenyl)-5-(6-(trifluoromethyl)pyridin-3-yl)isoindolin-1-one] showed a half-inhibitory concentration (IC50) of 1.86 µM.

The compound `COc1cc(C#N)cc(-c2cc3c(cc2-c2ccc(F)cc2F)C(=O)NC3)c1` [Compound 95, 3-(6-(2,4-difluorophenyl)-1-oxoisoindolin-5-yl)-5-methoxybenzonitrile] had an IC50 of 1.44 µM.
